One assay deals with MDA-MB-231. In words: Cytotoxicity against human MDA-MB-231 cells assessed as inhibition of cell growth at 20 uM measured after 72 hrs by MTT assay relative to control. The class given is functional.
Assay [1] relates to HCT-116. Kind of assay: Cytotoxicity against human HCT-116 cells assessed as inhibition of cell growth at 20 uM measured after 72 hrs by MTT assay relative to control. Type of assay: functional.
The test system of assay [2] is A549. Kind of assay: Cell cycle arrest in human A549 cells assessed as accumulation at G2/M phase at 1.2 uM measured after 24 hrs by PI staining based Flow cytometry method (reference value: 10.2%). The class given is functional.
Assay [3] deals with A549. Kind of assay: Cell cycle arrest in human A549 cells assessed as accumulation at S phase at 1.2 uM measured after 24 hrs by PI staining based Flow cytometry method (reference value: 34.24%). Type of assay: functional.
The subject of assay [4] is A549. In words: Induction of apoptosis in human A549 cells assessed as late apoptotic cells at 0.6 uM measured by annexinV-FITC/propidium iodide staining based flow cytometry analysis (reference value: 0.64%). Type of assay: functional.
Assay [5] deals with A549. In words: Induction of apoptosis in human A549 cells assessed as necrotic cells at 1.2 uM measured by annexinV-FITC/propidium iodide staining based flow cytometry analysis (reference value: 0.42%). The class given is functional.
Assay [6] relates to A549. Kind of assay: Induction of apoptosis in human A549 cells assessed as viable cells at 1.8 uM measured by annexinV-FITC/propidium iodide staining based flow cytometry analysis (reference value: 97.8%). The class given is functional. To be noted: read-out: Activity.
Assay [7] deals with HCT-116. Kind of assay: Induction of apoptosis in human HCT-116 cells assessed as early apoptotic cells at 1.8 uM measured by annexinV-FITC/propidium iodide staining based flow cytometry analysis. Type of assay: functional.
For assay [8], the target named is T1, Nuclear factor NF-kappa-B complex (Homo sapiens) (UniProt Q00653+P19838+Q04206). Kind of assay: Inhibition of human NF-kB in human HCT-116 cells assessed as suppression of TNF-alpha induced p-65 expression at 0.5 to 5 uM pretreated with compounds for 24 hrs followed by TNF-alpha stimulation for 10 mins by Western blot analysis. The class given is cell-based. To be noted: dose 0.5-5 µM, time 1450.0 min.

Assay [9] concerns the target T1, Nuclear factor NF-kappa-B complex (Homo sapiens). In words: Inhibition of human NF-kB in human HCT-116 cells assessed as suppression of TNF-alpha induced p-65 phosphorylation at 0.5 to 5 uM pretreated with compounds for 24 hrs followed by TNF-alpha stimulation for 10 mins by Western blot analysis. The following applies: dose 0.5-5 µM, time 1450.0 min. The class given is cell-based.

Assay [10] has the same target. Kind of assay: Inhibition of human NF-kB in human A549 cells assessed as suppression of TNF-alpha induced p-65 phosphorylation at 0.5 to 5 uM pretreated with compounds for 24 hrs followed by TNF-alpha stimulation for 10 mins by Western blot analysis. Type of assay: cell-based. To be noted: dose 0.5-5 µM, time 1450.0 min.

The source made the active and inactive calls. No cut-off for these calls is given here.

T1 sequence (P19838 whole entry, looked up): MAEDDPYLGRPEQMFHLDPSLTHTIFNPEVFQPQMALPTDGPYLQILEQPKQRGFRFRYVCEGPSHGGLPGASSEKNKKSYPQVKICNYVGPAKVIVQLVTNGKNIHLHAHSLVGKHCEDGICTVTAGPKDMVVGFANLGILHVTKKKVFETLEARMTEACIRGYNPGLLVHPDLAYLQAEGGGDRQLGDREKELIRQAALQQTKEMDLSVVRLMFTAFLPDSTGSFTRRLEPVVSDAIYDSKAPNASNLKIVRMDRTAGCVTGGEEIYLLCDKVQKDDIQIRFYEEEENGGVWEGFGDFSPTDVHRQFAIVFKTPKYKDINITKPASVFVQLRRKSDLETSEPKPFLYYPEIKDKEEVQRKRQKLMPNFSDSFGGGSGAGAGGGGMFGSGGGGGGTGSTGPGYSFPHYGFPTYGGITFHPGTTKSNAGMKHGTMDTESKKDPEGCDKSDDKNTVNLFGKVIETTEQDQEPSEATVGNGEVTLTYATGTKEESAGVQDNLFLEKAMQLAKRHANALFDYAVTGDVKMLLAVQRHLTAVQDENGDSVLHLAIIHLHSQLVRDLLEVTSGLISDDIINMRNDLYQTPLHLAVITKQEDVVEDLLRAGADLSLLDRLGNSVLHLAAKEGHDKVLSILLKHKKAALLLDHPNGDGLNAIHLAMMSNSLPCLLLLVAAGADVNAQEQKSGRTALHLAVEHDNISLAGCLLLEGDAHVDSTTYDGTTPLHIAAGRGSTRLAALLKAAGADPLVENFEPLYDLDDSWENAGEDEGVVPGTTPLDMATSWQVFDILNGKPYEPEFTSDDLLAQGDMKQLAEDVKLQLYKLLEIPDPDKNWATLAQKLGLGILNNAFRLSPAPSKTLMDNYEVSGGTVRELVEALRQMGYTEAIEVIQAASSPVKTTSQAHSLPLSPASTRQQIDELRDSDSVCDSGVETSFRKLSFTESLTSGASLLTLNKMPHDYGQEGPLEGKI
T1 sequence (Q00653 whole entry, looked up): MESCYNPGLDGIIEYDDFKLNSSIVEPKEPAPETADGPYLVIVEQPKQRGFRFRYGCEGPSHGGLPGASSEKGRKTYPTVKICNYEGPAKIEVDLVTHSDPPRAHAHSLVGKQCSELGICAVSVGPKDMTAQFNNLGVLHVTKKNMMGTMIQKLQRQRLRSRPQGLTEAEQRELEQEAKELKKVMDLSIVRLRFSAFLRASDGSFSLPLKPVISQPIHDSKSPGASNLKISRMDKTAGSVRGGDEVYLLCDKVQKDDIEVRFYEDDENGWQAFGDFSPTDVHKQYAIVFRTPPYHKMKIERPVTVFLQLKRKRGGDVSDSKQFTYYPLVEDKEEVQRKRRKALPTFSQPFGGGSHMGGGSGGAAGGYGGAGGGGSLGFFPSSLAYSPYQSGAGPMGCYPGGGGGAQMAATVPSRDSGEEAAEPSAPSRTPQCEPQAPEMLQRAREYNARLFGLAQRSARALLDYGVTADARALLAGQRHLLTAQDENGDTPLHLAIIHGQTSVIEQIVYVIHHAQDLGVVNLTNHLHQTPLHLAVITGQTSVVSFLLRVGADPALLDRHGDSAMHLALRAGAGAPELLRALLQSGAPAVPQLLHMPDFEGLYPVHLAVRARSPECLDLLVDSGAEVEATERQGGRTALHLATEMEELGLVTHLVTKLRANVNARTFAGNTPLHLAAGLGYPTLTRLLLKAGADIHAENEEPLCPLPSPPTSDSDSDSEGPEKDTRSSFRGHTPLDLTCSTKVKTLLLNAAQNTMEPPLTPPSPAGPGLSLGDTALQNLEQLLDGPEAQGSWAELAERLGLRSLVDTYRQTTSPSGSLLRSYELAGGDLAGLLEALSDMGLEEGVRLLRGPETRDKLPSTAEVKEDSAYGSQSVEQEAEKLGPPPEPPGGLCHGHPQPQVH
T1 sequence (Q04206 whole entry, looked up): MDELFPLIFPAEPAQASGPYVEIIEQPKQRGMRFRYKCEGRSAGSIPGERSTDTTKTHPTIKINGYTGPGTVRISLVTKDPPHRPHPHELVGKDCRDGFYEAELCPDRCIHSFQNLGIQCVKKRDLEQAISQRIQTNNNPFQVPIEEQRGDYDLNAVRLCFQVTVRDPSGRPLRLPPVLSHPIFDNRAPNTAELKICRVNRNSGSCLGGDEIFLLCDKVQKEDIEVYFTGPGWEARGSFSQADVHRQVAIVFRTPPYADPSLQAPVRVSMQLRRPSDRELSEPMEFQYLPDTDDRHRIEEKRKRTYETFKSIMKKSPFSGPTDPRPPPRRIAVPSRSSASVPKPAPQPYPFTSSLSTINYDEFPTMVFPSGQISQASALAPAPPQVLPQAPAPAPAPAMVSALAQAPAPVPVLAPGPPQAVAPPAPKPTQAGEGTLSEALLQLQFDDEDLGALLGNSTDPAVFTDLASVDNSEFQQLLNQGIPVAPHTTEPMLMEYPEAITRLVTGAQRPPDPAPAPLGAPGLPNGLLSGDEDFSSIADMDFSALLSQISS

Take `CNC(=O)c1cc(Oc2ccc(Nc3nccc(N4CCCCC4)n3)cc2)ccn1`: the inhibition at 20 µM with MDA-MB-231 came to 52.3%; in the assay with HCT-116 [1], 69.8%. The Activity in the assay on A549 [2] is reported as 23.68%; in the assay with A549 [3], 18.83%; in the assay with A549 [4] it was 3.46%; with A549 [5] it was 0.74%; in the assay with HCT-116 [7], 71.4%. In addition, the viability at 1.8 µM in the assay on A549 [6] turned out to be 64.4%. Also, the inhibition entry in assay [8], in assay [9] and in assay [10] was “Active” throughout.

For the origin of these results see ChEMBL document CHEMBL4831488, “Design, synthesis, docking, molecular dynamics and bioevaluation studies on novel N-methylpicolinamide and thienopyrimidine derivatives with inhibiting NF-κB and TAK1 activities: Cheminformatics tools RDKit applied in drug design” (Eur J Med Chem, 2021).
